Reference: patent publication US10047098B2, “C5-C6-oxacyclic fused iminopyrimidinone compounds as bace inhibitors, compositions, and their use” (Merck Sharp & Dohme Corp., priority 2014, dated 2018)

How the values were obtained:
[1] = target: purified human autoBACE-2 (Homo sapiens (Human), UniProt Q9Y5Z0); assay: BACE-2 Assay (BACE-HTRF assay); type: biochemical; details: Ki calculated from IC50 using the Cheng-Prusoff equation; QSY7-EISEVNLDAEFC-Eu-amide substrate, pH 5.0
Method in brief: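 Endpoint proteolysis of a QSY7/europium FRET peptide by purified human autoBACE-2, 5% DMSO final, read by time-resolved fluorescence at 620 nm after 320 nm excitation.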

[2] = target: Recombinant human soluble BACE1 catalytic domain (Homo sapiens (Human), UniProt P56817); assay: BACE1 HTRF FRET Assay; type: biochemical; details: Ki calculated from IC50 using the Cheng-Prusoff equation; QSY7-APPswe-Eu substrate, pH 5.0; read-out: BACE-1 Ki
Method in brief: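 Purified BACE1 catalytic domain (3 nM as added) is preincubated with inhibitor for 30 min at 30 °C in 20 mM Na-acetate pH 5.0, 10% glycerol, 0.1% Brij-35, 7.5% DMSO. QSY7-APP^swe-Eu substrate (200 nM final) is then cleaved for 1.5 h at 30 °C and read as time-resolved 620 nm fluorescence. IC50s come from nonlinear regression, and Ki from Cheng-Prusoff using substrate Km 8 μM.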

Sequence of Recombinant human soluble BACE1 catalytic domain (P56817 75-416): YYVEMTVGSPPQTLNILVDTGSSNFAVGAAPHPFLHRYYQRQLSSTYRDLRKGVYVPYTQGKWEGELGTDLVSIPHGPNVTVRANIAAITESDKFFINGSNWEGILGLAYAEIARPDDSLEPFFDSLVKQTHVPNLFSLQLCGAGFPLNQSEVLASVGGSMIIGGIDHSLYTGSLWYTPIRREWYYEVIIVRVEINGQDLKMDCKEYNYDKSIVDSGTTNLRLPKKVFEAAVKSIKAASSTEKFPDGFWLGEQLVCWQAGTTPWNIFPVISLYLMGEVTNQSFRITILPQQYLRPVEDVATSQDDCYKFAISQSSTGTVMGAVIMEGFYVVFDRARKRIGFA
Sequence of purified human autoBACE-2 (Q9Y5Z0 63-473 limits assumed): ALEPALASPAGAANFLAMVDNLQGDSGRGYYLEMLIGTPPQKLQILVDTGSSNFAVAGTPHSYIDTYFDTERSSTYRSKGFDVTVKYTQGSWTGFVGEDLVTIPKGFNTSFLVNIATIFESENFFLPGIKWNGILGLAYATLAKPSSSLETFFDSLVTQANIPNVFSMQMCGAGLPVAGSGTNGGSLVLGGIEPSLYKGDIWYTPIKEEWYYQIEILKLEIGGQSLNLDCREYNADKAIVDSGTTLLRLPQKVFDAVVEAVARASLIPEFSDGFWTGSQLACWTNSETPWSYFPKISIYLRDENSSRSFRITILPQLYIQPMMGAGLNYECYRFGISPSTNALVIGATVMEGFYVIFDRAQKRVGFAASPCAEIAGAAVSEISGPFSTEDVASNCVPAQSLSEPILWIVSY

Ki [1] [nM] | Ki [2] [nM] | SMILES
23 | 52 | CN1C(=N)N[C@@]2(c3cc(Oc4cc(-n5cccn5)ncn4)ccc3F)CO[C@@H](C3CC3)C[C@H]2C1=O [Example 13, (4aR,6R,8aS)-8a-(5-((6-(1H-pyrazol-1-yl)pyrimidin-4-yl)oxy)-2-fluorophenyl)-6-cyclopropyl-2-imino-3-methylhexahydro-1H-pyrano[3,4-d]pyrimidin-4(4aH)-one]
20 | 3 | COC[C@H]1C[C@H]2C(=O)N(C)C(=N)N[C@@]2(c2cc(Oc3cc(F)cnc3F)c(F)cc2F)CO1 [Example 59, (4aR,6R,8aS)-8a-(5-((2,5-difluoropyridin-3-yl)oxy)-2,4-difluorophenyl)-2-imino-6-(methoxymethyl)-3-methylhexahydro-1H-pyrano[3,4-d]pyrimidin-4(4aH)-one]
32.9 | 20 | C[C@H]1C[C@H]2C(=O)N(C)C(=N)N[C@@]2(c2cc(Oc3cncc(F)c3)ccc2F)CO1 [Example 78, (4aR,6S,8aS)-8a-(2-fluoro-5-((5-fluoropyridin-3-yl)oxy)phenyl)-2-imino-3,6-dimethylhexahydro-1H-pyrano[3,4-d]pyrimidin-4(4aH)-one]
235 | 402 | Cc1nccnc1Oc1ccc(F)c([C@]23CO[C@@H](C)C[C@H]2C(=O)N(C)C(=N)N3)c1 [Example 70, (4aR,6S,8aS)-8a-(2-fluoro-5-((3-methylpyrazin-2-yl)oxy)phenyl)-2-imino-3,6-dimethylhexahydro-1H-pyrano[3,4-d]pyrimidin-4(4aH)-one]
15.8 | 6.6 | COc1cncc(Oc2ccc(F)c([C@]34CO[C@@H](C)C[C@H]3C(=O)N(C)C(=N)N4)c2)n1 [Example 65, (4aR,6S,8aS)-8a-(2-fluoro-5-((6-methoxypyrazin-2-yl)oxy)phenyl)-2-imino-3,6-dimethylhexahydro-1H-pyrano[3,4-d]pyrimidin-4(4aH)-one]
125 | 121 | Cc1cnc(Oc2ccc(F)c([C@]34CO[C@@H](C5CC5)C[C@H]3C(=O)N(C)C(=N)N4)c2)c(F)c1 [Example 60, (4aR,6R,8aS)-6-cyclopropyl-8a-(2-fluoro-5-((3-fluoro-5-methylpyridin-2-yl)oxy)phenyl)-2-imino-3-methylhexahydro-1H-pyrano[3,4-d]pyrimidin-4(4aH)-one]
42 | 55 | CN1C(=N)N[C@@]2(c3cc(OCC4CC(F)(F)C4)ccc3F)CO[C@@H](C3CC3)C[C@H]2C1=O [Example 51, (4aR,6R,8aS)-6-cyclopropyl-8a-(5-((3,3-difluorocyclobutyl)methoxy)-2-fluorophenyl)-2-imino-3-methylhexahydro-1H-pyrano[3,4-d]pyrimidin-4(4aH)-one]
4.46 | 16.1 | C=CCCOc1cc([C@]23CO[C@@H](C)C[C@H]2C(=O)N(C)C(=N)N3)c(F)cn1 [Example 93, (4aR,6S,8aS)-8a-(2-(but-3-en-1-yloxy)-5-fluoropyridin-4-yl)-2-imino-3,6-dimethylhexahydro-1H-pyrano[3,4-d]pyrimidin-4(4aH)-one]
6 | 6 | C[C@H]1C[C@H]2C(=O)N(C)C(=N)N[C@@]2(c2cc(Oc3cc(C#N)ccn3)ccc2F)CO1 [Example 21, 2-(4-fluoro-3-((4aR,6S,8aS)-2-imino-3,6-dimethyl-4-oxohexahydro-1H-pyrano[3,4-d]pyrimidin-8a(8H)-yl)phenoxy)isonicotinonitrile]
20 | 30 | CN1C(=N)N[C@@]2(c3cc(OCC4CCC4)ccc3F)CO[C@@H](C3CC3)C[C@H]2C1=O [Example 44, (4aR,6R,8aS)-8a-(5-(cyclobutylmethoxy)-2-fluorophenyl)-6-cyclopropyl-2-imino-3-methylhexahydro-1H-pyrano[3,4-d]pyrimidin-4(4aH)-one]
109 | 11 | CN1C(=N)N[C@@]2(c3cc(Oc4ncc(F)cc4F)ccc3F)CO[C@@H](C3CC3)C[C@H]2C1=O [Example 18, (4aR,6R,8aS)-6-cyclopropyl-8a-(5-((3,5-difluoropyridin-2-yl)oxy)-2-fluorophenyl)-2-imino-3-methylhexahydro-1H-pyrano[3,4-d]pyrimidin-4(4aH)-one]
1590 | 8400 | C=CCCn1cc(F)c([C@]23CO[C@@H](C)C[C@H]2C(=O)N(C)C(=N)N3)cc1=O [Example 95, (4aR,6S,8aS)-8a-(1-(but-3-en-1-yl)-5-fluoro-2-oxo-1,2-dihydropyridin-4-yl)-2-imino-3,6-dimethylhexahydro-1H-pyrano[3,4-d]pyrimidin-4(4aH)-one]
25 | 3 | COC[C@H]1C[C@H]2C(=O)N(C)C(=N)N[C@@]2(c2cc(Oc3cc(C#N)ccn3)ccc2F)CO1 [Example 30, 2-(4-fluoro-3-((4aR,6R,8aS)-2-imino-6-(methoxymethyl)-3-methyl-4-oxohexahydro-1H-pyrano[3,4-d]pyrimidin-8a(8H)-yl)phenoxy)isonicotinonitrile]
34 | 131 | Cc1cc([C@H]2C[C@H]3C(=O)N(C)C(=N)N[C@@]3(c3cc(F)ccc3F)CO2)on1 [Example 8, (4aR,6R,8aS)-8a-(2,5-difluorophenyl)-2-imino-3-methyl-6-(3-methylisoxazol-5-yl)hexahydro-1H-pyrano[3,4-d]pyrimidin-4(4aH)-one]
24.2 | 60.5 | CN1C(=N)N[C@@]2(c3cc(Br)ccc3F)CO[C@@H](c3ccc(F)cc3)C[C@H]2C1=O [Example 83, (4aR,6R,8aS)-8a-(5-bromo-2-fluorophenyl)-6-(4-fluorophenyl)-2-imino-3-methylhexahydro-1H-pyrano[3,4-d]pyrimidin-4(4aH)-one]
228 | 60 | CN1C(=N)N[C@@]2(c3cc(Oc4ccnc(C(F)F)c4)ccc3F)CO[C@@H](C3CC3)C[C@H]2C1=O [Example 20]
61 | 20 | COC[C@H]1C[C@H]2C(=O)N(C)C(=N)N[C@@]2(c2cc(Oc3cc(OC)ccn3)c(F)cc2F)CO1 [Example 4, (4aR,6R,8aS)-8a-(2,4-difluoro-5-((4-methoxypyridin-2-yl)oxy)phenyl)-2-imino-6-(methoxymethyl)-3-methylhexahydro-1H-pyrano[3,4-d]pyrimidin-4(4aH)-one]
8 | 4 | COC[C@H]1C[C@H]2C(=O)N(C)C(=N)N[C@@]2(c2cc(Oc3ncccc3F)ccc2F)CO1 [Example 31, (4aR,6R,8aS)-8a-(2-fluoro-5-((3-fluoropyridin-2-yl)oxy)phenyl)-2-imino-6-(methoxymethyl)-3-methylhexahydro-1H-pyrano[3,4-d]pyrimidin-4(4aH)-one]
82.7 | 358 | C[C@H]1C[C@H]2C(=O)N(C)C(=N)N[C@@]2(c2cc(O)ccc2F)CO1 [Example 64, (4aR,6S,8aS)-8a-(2-fluoro-5-hydroxyphenyl)-2-imino-3,6-dimethylhexahydro-1H-pyrano[3,4-d]pyrimidin-4(4aH)-one]
5.96 | 44 | CN1C(=N)N[C@@]2(c3cc(OCC4CC4)ccc3F)COCC[C@H]2C1=O [Example 88, (4aR,8aS)-8a-(5-(cyclopropylmethoxy)-2-fluorophenyl)-2-imino-3-methylhexahydro-1H-pyrano[3,4-d]pyrimidin-4(4aH)-one]
51 | 9 | CN1C(=N)N[C@@]2(c3cc(Oc4cc(-n5cccn5)ccn4)ccc3F)CO[C@@H](C3CC3)C[C@H]2C1=O [Example 56, (4aR,6R,8aS)-8a-(5-((4-(1H-pyrazol-1-yl)pyridin-2-yl)oxy)-2-fluorophenyl)-6-cyclopropyl-2-imino-3-methylhexahydro-1H-pyrano[3,4-d]pyrimidin-4(4aH)-one]
41 | 40 | CN1C(=N)N[C@@]2(c3cc(OCC(F)F)ccc3F)CO[C@@H](C3CC3)C[C@H]2C1=O [Example 46, (4aR,6R,8aS)-6-cyclopropyl-8a-(5-(2,2-difluoroethoxy)-2-fluorophenyl)-2-imino-3-methylhexahydro-1H-pyrano[3,4-d]pyrimidin-4(4aH)-one]
13.4 | 31.7 | C[C@H]1C[C@H]2C(=O)N(C)C(=N)N[C@@]2(c2cc(Oc3ccccn3)ccc2F)CO1 [Example 76, (4aR,6S,8aS)-8a-(2-fluoro-5-(pyridin-2-yloxy)phenyl)-2-imino-3,6-dimethylhexahydro-1H-pyrano[3,4-d]pyrimidin-4(4aH)-one]
8.84 | 21 | COC[C@H]1C[C@H]2C(=O)N(C)C(=N)N[C@@]2(c2cc(OCC3CC3)ccc2F)CO1 [Example 90, (4aR,6R,8aS)-8a-(5-(cyclopropylmethoxy)-2-fluorophenyl)-2-imino-6-(methoxymethyl)-3-methylhexahydro-1H-pyrano[3,4-d]pyrimidin-4(4aH)-one]

SMILES | Ki [1] [nM] | Ki [2] [nM]
CN1C(=N)N[C@@]2(c3cc(OC4CC(F)(F)C4)ccc3F)CO[C@@H](C3CC3)C[C@H]2C1=O [Example 57, (4aR,6R,8aS)-6-cyclopropyl-8a-(5-(3,3-difluorocyclobutoxy)-2-fluorophenyl)-2-imino-3-methylhexahydro-1H-pyrano[3,4-d]pyrimidin-4(4aH)-one] | 41 | 43
